Experiment [1] addresses T1, human serotonin 5-HT7 receptor subtype (Homo sapiens, UniProt P34969).
T1 construct: expressed in transfected cells
The experiment is described as follows: Binding affinity for 5-HT7 receptor ([3H]-5CT binding test). The settings on record: for Ki: [3H]-5CT 1 nM, membrane fraction of cells expressing human 5-HT7, 37° C. 30 minutes, Ki calculated from IC50; for 5-HT2/5-HT7: ratio of Ki of 5-HT2 to Ki of 5-HT7 (selectivity). The procedure: Test Example 1 Binding Affinity for 5-HT7 Rector
Cultured cells capable of expressing human serotonin 5-HT7 receptor subtype were harvested in an assay buffer solution (50 mM Tris-HCl containing 10 mM MgCl2and 0.5 mM EDTA, pH 7.4) and homogenized with a Potter tripe homogenizer, and then the membrane fraction was centrifuged for 20 minutes at 39,000 g and at 4° C. The thus obtained pellet was re-suspended in 1 ml, per cells per one culture dish of 10 cm in diameter, of the assay buffer solution and homogenized again.
The binding test was carried out using 1 nM in final concentration of [^3H]-5CT (carboxamide tryptamine) and from 1 to 1,000 nM of each substance to be tested (the compound (1) of the invention among Synthesis Examples), and adjusting the final assay volume to 300 μl by adding 100 μl of the membrane fraction suspension and then incubating the reaction system at 37° C. for 30 minutes. The incubation was terminated by quickly filtering on a GF/B filter, subsequently carrying out washing with 6 ml of cold 50 mM Tris-HCl (pH 7.4). The radioactivity was measured using a liquid scintillation counter. Non-specific binding was determined by 10 μM metergoline, and the specific binding was calculated based on the difference therefrom. The IC50 value was calculated from the inhibition curve of each compound, and the binding inhibition constant Ki was calculated from the value.

Experiment [2] addresses T2, 5-HT2 receptor (Rattus norvegicus, UniProt P14842).
T2 construct: Rat cerebral cortex was homogenized; from tissue; host or cells: rat cerebral cortex, P2 membrane fraction
The experiment is described as follows: Binding affinity for 5-HT2 receptor ([3H]ketanserin binding, rat cerebral cortex P2 fraction). Particulars: [3H]ketanserin 1 nM, 37° C. 15 minutes, Ki calculated from IC50. The procedure: Test Example 2 Binding Affinity for 5-HT2 Rector
Rat cerebral cortex was homogenized in 10 volumes of 0.32 M sucrose solution and centrifuged for 10 minutes at 900×g, and the resulting supernatant fluid was again centrifuged for 20 minutes at 11,500×g. The thus obtained precipitate was re-suspended in 50 mM Tris-HCl (pH 7.4) buffer and centrifuged for 20 minutes at 39,900×g, and the thus obtained precipitate was used as P2 fraction.
The P2 fraction was incubated at 37° C. for 15 minutes in 50 mM Tris-HCl (pH 7.4) buffer containing 1 nM of [^3H]ketanserin and each of the compounds of the invention and then filtered after the reaction using Whatman GF/B glass filter. The radioactivity on the filter was measured using a liquid scintillation counter. Non-specific binding was determined by 10 μM ketanserin, and the specific binding was calculated based on the difference therefrom. The IC50 value was calculated from the inhibition curve of each compound, and the binding inhibition constant Ki was calculated from the value.

T2 sequence (P14842 whole entry): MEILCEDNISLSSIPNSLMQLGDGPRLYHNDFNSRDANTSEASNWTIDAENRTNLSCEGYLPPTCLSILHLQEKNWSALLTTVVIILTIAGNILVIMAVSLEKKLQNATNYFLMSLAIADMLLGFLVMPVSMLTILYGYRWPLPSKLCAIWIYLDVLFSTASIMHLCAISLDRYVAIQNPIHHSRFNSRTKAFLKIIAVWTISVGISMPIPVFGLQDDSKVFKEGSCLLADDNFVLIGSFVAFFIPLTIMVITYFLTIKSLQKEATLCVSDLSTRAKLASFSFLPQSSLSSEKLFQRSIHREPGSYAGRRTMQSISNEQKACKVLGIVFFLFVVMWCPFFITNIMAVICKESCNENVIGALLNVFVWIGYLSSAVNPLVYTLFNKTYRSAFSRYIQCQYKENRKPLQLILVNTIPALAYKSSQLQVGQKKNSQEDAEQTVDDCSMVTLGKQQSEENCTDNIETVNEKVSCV
T1 sequence (P34969 whole entry): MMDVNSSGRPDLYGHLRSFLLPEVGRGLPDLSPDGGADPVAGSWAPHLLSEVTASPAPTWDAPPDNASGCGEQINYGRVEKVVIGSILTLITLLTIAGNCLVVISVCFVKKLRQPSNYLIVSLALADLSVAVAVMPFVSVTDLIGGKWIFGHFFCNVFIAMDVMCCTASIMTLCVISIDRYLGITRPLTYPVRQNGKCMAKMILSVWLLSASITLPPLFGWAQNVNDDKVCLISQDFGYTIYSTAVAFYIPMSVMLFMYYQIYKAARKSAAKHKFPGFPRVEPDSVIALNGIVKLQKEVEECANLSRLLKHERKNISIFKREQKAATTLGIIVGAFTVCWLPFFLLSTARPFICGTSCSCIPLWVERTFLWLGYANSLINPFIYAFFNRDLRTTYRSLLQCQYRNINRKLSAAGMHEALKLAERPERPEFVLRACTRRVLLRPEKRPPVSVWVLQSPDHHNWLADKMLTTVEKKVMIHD

On to `CN1C(=O)C2(CCCCN3CCc4ccccc4C3)CCCc3cccc1c32` (stereo not drawn) [Compd. of Syn. Ex. 14c, 2a-(4-(1,2,3,4-Tetrahydroisoquinolin-2-yl)butyl)-1-methyl-2a,3,4,5-tetrahydro-1H-benz[cd]indol-2-one], for which the Ki in experiment [1] is 1.9 nM; in experiment [2], over 1000 nM. In experiment [1], the 5-HT2/5-HT7 was over 530.

On to `O=C1Nc2cccc3c2C1(CCCCN1CCc2sccc2C1)CCC3` (stereo not drawn) [Compd. of Syn. Ex. 17c, 2a-(4-(4,5,6,7-Tetrahydro-thieno[3,2-c]pyridin-5-yl)butyl)-2a,3,4,5-tetrahydro-1H-benz[cd]indol-2-one], for which, in experiment [1], the Ki was 0.9 nM and the 5-HT2/5-HT7 is listed as over 1100. Moreover, the Ki in experiment [2] was over 1000 nM.

On to `O=C1Nc2cccc3c2C1(CCCCN1CCN(C2CCCc4ccccc42)CC1)CCC3` (stereo not drawn) [Compd. of Syn. Ex. 10d, 2a-(4-(4-(1,2,3,4-Tetrahydronaphthalen-1-yl)-piperazin-1-yl)butyl)-2a,3,4,5-tetrahydro-1H-benz[cd]indol-2-one], for which the results for the Ki in experiment [1] and in experiment [2] were 9.8 nM and over 1000 nM, respectively. For the same compound, in experiment [1], the 5-HT2/5-HT7 is over 100.

For `O=C1Nc2cccc3c2C1(CCCCN1CCN2c4ccccc4[S+]([O-])CC2C1)CCC3` (stereo not drawn) [Compd. of Syn. Ex. 10b, 2a-[4-(1,2,3,4,4a,5-Hexahydro-6-oxo-6-λ^4-pyrazino[2,1-c]-1,4-benzthiazin-3-yl)-butyl]-2a,3,4,5-tetrahydro-1H-benz[cd]indol-2-one], in experiment [1], the inhibition constant (Ki) is 7 nM and the 5-HT2/5-HT7 is reported as over 143. The Ki in experiment [2] was over 1000 nM.

For `COC(=O)n1c2c(c3ccccc31)CCN(CCCCC13CCCc4cccc(c41)NC3=O)C2` (stereo not drawn) [Compd. of Syn. Ex. 17a, 2a-[4-(9-Methoxycarbonyl-2,3,4,9-tetrahydro-1H-pyrido[3,4-b]indol-2-yl)-butyl]-2a,3,4,5-tetrahydro-1H-benz[cd]indol-2-one], the Ki was 9 nM in experiment [1] and 807 nM in experiment [2]. Further, the 5-HT2/5-HT7 in experiment [1] was 90.

For the compound `Cl.O=C1Nc2ccccc2N2CCN(CCCCC34CCCc5cccc(c53)NC4=O)CC12` (stereo not drawn) [Compd. of Syn. Ex. 13b, 2a-[4-(2,3,4,4a-Tetrahydro-1H-pyrazino[1,2-a]quinoxalin-5(6H)-one-3-yl)-butyl]-2a,3,4,5-tetrahydro-1H-benz[cd]indol-2-one Hydrochloride], in experiment [1], the Ki was 8 nM and the 5-HT2/5-HT7 is 48. Besides, the Ki in experiment [2] is 385 nM.

On to `CC(c1ccccc1)N1CCN(CCCCC23CCCc4cccc(c42)NC3=O)CC1` (stereo not drawn) [Compd. of Syn. Ex. 2e, 2a-(4-(4-(1-Phenyl-ethyl)-piperazin-1-yl)butyl)-2a,3,4,5-tetrahydro-1H-benz[cd]indol-2-one], for which, in experiment [1], the Ki was 30 nM and the 5-HT2/5-HT7 is given as 15. The Ki in experiment [2] was 456 nM.

Take `O=C1Nc2cccc3c2C1(CCCCN1CCN(C2CCCc4cnccc42)CC1)CCC3` (stereo not drawn) [Compd. of Syn. Ex. 37d, 2a-(4-(4-(5,6,7,8-Tetrahydroisoquinolin-5-yl)-piperazin-1-yl)butyl)-2a,3,4,5-tetrahydro-1H-benz[d]indol-2-one]: in experiment [1], the Ki was 8.8 nM and the 5-HT2/5-HT7 stood at 100. For the same compound, in experiment [2], the Ki is 882 nM.

As for `COCn1c2c(c3ccccc31)CCN(CCCCC13CCCc4cccc(c41)NC3=O)C2` (stereo not drawn) [Compd. of Syn. Ex. 21a, 2a-[4-(9-Methoxymethyl-2,3,4,9-tetrahydro-1H-pyrido[3,4-b]indol-2-yl)-butyl]-2a,3,4,5-tetrahydro-1H-benz[cd]indol-2-one], in experiment [1], the Ki is 13 nM and the 5-HT2/5-HT7 is 40. Moreover, the Ki in experiment [2] was 524 nM.

On to `O=C1Nc2cccc3c2C1(CCCCN1CCc2c([nH]c4ccccc24)C1)CCC3` (stereo not drawn) [Compd. of Syn. Ex. 1a, 2a-[4-(2,3,4,9-Tetrahydro-1H-pyrido[3,4-b]indol-2-yl)-butyl]-2a,3,4,5-tetrahydro-1H-benz[cd]indol-2-one], for which, in experiment [1], the Ki was 7 nM and the 5-HT2/5-HT7 was found to be 33. In experiment [2], the Ki was 227 nM.

`O=C1Nc2cccc3c2C1(CCCCN1CCN2c4ccccc4OCC2C1)CCC3` (stereo not drawn) [Compd. of Syn. Ex. 1b, 2a-[4-(1,2,3,4,4a,5-Hexahydropyrazino[2,1-c]-1,4-benzoxazin-3-yl)-butyl]-2a,3,4,5-tetrahydro-1H-benz[cd]indol-2-one]: in experiment [1], the Ki was 9 nM and the 5-HT2/5-HT7 came out at 17. In addition, in experiment [2], the Ki was 151 nM.

The values above are taken from patent publication US6498251B1, “Tetrahydrobenzindole derivatives” (Meiji Seika Kaisha, Ltd., priority 1997, dated 2002).
